Data reported in patent publication US11401279B2, “Pyrido[3,2-d]pyrimidine compounds as immunomodulators” (Incyte Corporation, priority 2019, dated 2022).
pIC50: −log10 of the molar value.

Assays:
[1] = molecular target: PD-L1 (Homo sapiens (Human), UniProt Q9NZQ7); experiment: PD-L1 whole blood internalization assay; format: cell-based; conditions: PD-L1 internalization in human whole blood, CD14+ cells, interferon γ, 24 hour
[2] = system: U2OS/PD-L1 cells and Jurkat-PD-1-SHP cells; experiment: Src homology region 2 domain-containing phosphatase (SHP) assay; format: cell-based; conditions: Homo sapiens, U2OS; PathHunter chemiluminescence, 2 hours
Outline: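 U2OS/PD-L1 cells and Jurkat-PD-1-SHP cells, 5000 each, were co-incubated with compound for 2 h at 37 °C in RPMI with 1% FBS. PathHunter enzyme-fragment complementation chemiluminescence reported PD-1/SHP recruitment. IC50 was fitted from percent of DMSO-control activity versus log concentration.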

[3] = molecular target: PD-1/PD-L1 (Homo sapiens (Human), UniProt Q9NZQ7); experiment: Homogeneous Time-Resolved Fluorescence (HTRF) PD-1/PD-L1 binding assay; conditions: recombinant human PD-1 and PD-L1
Sequence of PD-1/PD-L1 (Q9NZQ7 19-238): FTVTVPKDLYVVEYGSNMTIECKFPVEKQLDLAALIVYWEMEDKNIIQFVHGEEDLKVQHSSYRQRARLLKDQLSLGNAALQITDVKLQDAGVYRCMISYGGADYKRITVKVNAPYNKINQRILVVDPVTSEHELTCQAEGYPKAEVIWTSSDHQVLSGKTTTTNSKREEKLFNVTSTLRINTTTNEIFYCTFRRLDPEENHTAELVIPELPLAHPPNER
Outline: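 Human PD-1 (25-167, Fc-tagged; 3 nM) and PD-L1 (19-238, His-tagged; 10 nM) were preincubated 40 min with inhibitors in PBS pH 7.4, 0.05% Tween-20, 0.1% BSA, 1% DMSO, at 25 °C. Eu-anti-human IgG (1 nM) and anti-His-APC (20 nM) were added for 60 min. The 665/620 nm HTRF ratio gave IC50 by curve fitting.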

[4] = In vivo pharmacokinetics in rats; design: species or system Sprague Dawley rats; conditions: rat, cassette dosing; for clearance / half-life / Vd / Cmax / AUC(0-inf): male, Sprague-Dawley, plasma; for clearance / half-life / Vd: 1.0 mg/kg IV; for Vd: read-out: Vss; for Cmax / AUC(0-inf) / F: 3.0 mg/kg PO; for AUC(0-inf): read-out: AUC0-inf
Description: For in vivo pharmacokinetic experiments, test compounds were administered to male Sprague Dawley rats or male and female Cynomolgus monkeys intravenously or via oral gavage. For intravenous (IV) dosing, test compounds were dosed at 0.5 to 1 mg/kg using a formulation of 10% dimethylacetamide (DMAC) in acidified saline via IV bolus for rat and 5 min or 10 min IV infusion for monkey. For oral (PO) dosing, test compounds were dosed at 1.0 to 3.0 mg/kg using 5% DMAC in 0.5% methylcellulose in citrate buffer (pH 3.5). Blood samples were collected at predose and various time points up to 24 hours postdose. All blood samples were collected using EDTA as the anticoagulant and centrifuged to obtain plasma samples. The plasma concentrations of test compounds were determined by LC-MS methods. The measured plasma concentrations were used to calculate PK parameters by standard noncompartmental methods using Phoenix® WinNonlin software program (version 7.0, Pharsight Corporation).
In rats and monkeys, cassette dosing of test compounds were conducted to obtain preliminary PK parameters.

Sequence of PD-L1 (Q9NZQ7 19-290): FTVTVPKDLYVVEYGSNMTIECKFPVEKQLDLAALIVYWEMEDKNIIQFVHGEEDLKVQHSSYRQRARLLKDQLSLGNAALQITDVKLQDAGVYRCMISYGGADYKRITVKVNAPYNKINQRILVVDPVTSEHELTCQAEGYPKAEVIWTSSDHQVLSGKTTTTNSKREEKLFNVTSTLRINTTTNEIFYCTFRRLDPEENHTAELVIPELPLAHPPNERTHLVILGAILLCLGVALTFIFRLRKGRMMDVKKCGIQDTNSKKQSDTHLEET

Compound | pIC50 [1] | pIC50 [2] | pIC50 [3] | clearance [4] [mL/min/kg] | half-life [4] [h] | Vd [4] [L/kg] | Cmax [4] [nM] | AUC(0-inf) [4] [µM·h] | F [4] [%]
Cc1c(NC(=O)c2nc3c(n2C)CCN(CCC24CCC(C(=O)O)(CC2)C4)C3)cccc1-c1cccc(Nc2nc(C(F)F)nc3cc(CN4CC[C@@H](O)C4)cnc23)c1C [Example 5, (R)-4-(2-(2-((3′-((2-(difluoromethyl)-7-((3-hydroxypyrrolidin-1-yl)methyl)pyrido[3,2-d]pyrimidin-4-yl)amino)-2,2′-dimethyl-[1,1′-biphenyl]-3-yl)carbamoyl)-1-methyl-1,4,6,7-tetrahydro-5H-imidazo[4,5-c]pyridin-5-yl)ethyl)bicyclo[2.2.1]heptane-1-carboxylic Acid] | 7.22 | 8.40 | 8.68 | 6.93 | 3.9 | 1.63 | 241 | 1.65 | 19
Cc1c(Nc2nc(C(F)F)nc3cc(CN4CC[C@@H](O)C4)cnc23)cccc1-c1cccc(NC(=O)c2nc3c(n2C)CCN(CCC24CCC(C(=O)O)(CC2)C4)C3)c1Cl [Example 1, (R)-4-(2-(2-((2-chloro-3′-((2-(difluoromethyl)-7-((3-hydroxypyrrolidin-1-yl)methyl)pyrido[3,2-d]pyrimidin-4-yl)amino)-2′-methyl-[1,1′-biphenyl]-3-yl)carbamoyl)-1-methyl-1,4,6,7-tetrahydro-5H-imidazo[4,5-c]pyridin-5-yl)ethyl)bicyclo[2.2.1]heptane-1-carboxylic Acid] | 8.10 | 8.52 | 8.66 | 6.15 | 4.4 | 1.75 | 166 | 1.4 | 14
Cc1c(Nc2nc(C(F)F)nc3cc(CN4CC[C@@](C)(O)C4)cnc23)cccc1-c1cccc(NC(=O)c2nc3c(n2C)CCN(CCC24CCC(C(=O)O)(CC2)C4)C3)c1Cl [Example 2, (R)-4-(2-(2-((2-chloro-3′-((2-(difluoromethyl)-7-((3-hydroxy-3-methylpyrrolidin-1-yl)methyl)pyrido[3,2-d]pyrimidin-4-yl)amino)-2′-methyl-[1,1′-biphenyl]-3-yl)carbamoyl)-1-methyl-1,4,6,7-tetrahydro-5H-imidazo[4,5-c]pyridin-5-yl)ethyl)bicyclo[2.2.1]heptane-1-carboxylic Acid] | 8.10 | 8.41 | 8.82 | 7.85 | 4.4 | 2.63 | 111 | 1.07 | 14
